40 molecules from US20060089371A1, “Phenyl or heteroaryl amino alkane derivatives as ip receptor antagonist” (Bayer HealthCare AG, priority 2002, published 2006) can be followed below.

Usually IC50 stands for the concentration at which inhibition is half-maximal. The term melting point denotes the temperature, or range, at which the solid turns liquid.

The target of one data set is T1, IP receptor (Homo sapiens, UniProt P43119).
T1 construct: one million cells in 160 μl aliquot of cell suspension were put in a well of 96 well plate; host or cells: HEL 92.1.7 human erythroleukemia cells (whole cells)
Put plainly: IP receptor binding/cAMP in HEL cells ([3H]-iloprost binding, Assay 1; iloprost-induced cAMP production, Assay 2). The following applies: compounds of about 40 to 90% purity, read-out: In vitro activity grade (IC50 class). The procedure: [Measurement of the [^3H]-iloprost Binding to HEL Cells] (Assay 1)
A human erythloleukemia cell line, HEL 92.1.7, was purchased from American Type Culture Correction and maintained in RPMI-1640 medium (Gibco BRL) supplemented with 10% fetal calf serum (FCS), 2 mM glutamine, 4.5 g/L glucose, 10 mM Hepes, 1 mM sodium pyruvate, 100 U/ml penicillin, and 100 μg/ml streptomycin in a humidified 5% CO2 atmosphere at 37° C. Cells were collected with centrifugation and washed with binding assay buffer (BAB: 50 mM Tris-HCl, 5 mM MgCl2 (pH 7.5)). Cells were suspended at the density of 6.25×10^6 cells/ml in BAB, and one million cells in 160 μl aliquot of cell suspension were put in a well of 96 well plate (Falcon). Then, 20 μl of compound solution, 100 μM of iloprost (for non-specific binding), or buffer alone (total binding), diluted with 1% DMSO in BAB was added. Finally, another 20 μl containing [^3H]-iloprost (0.02 μCi, 0.5-1 pmol) in BAB was added and incubated at room temperature for 30 min with a gentle shaking. Cell suspension was then transferred to a well of MultiScreen plate with GF/C glass filters (Millipore) to harvest cells. Cells were washed twice with 200 μl of ice-cold BAB and the plate was kept at 55° C. for 30 min to dry filters. The filter in the well was punched out to a counting tube and 2 ml of Ultima Gold XR (Packard) was added. [^3H]-radio activity in the filter was measured by a liquid scintillation counter (Beckman, USA).
[Iloprost-Induced cAMP Production Assay in HEL Cells] (Assay 2)
HEL cells were collected with centrifugation and washed with cAMP assay buffer (CAB: Hank's balanced salt solution, 17 mM Hepes, 0.1% bovine serum albumin, 1 mM IBMX, 0.4% DMSO, and 1 mM L-ascorbic acid sodium salt (pH 7.4)). Cells were suspended at the density of 2.5×10^5 cells/ml in CAB, and twenty thousand cells in 80 μl aliquot of cell suspension were put in a well of 96 well plate (Falcon). Then, 10 μl of compound solution diluted with 1% DMSO in CAB or buffer alone was added. The plate was incubated at 37° C. for 30 min. Then, another 10 μl containing 100 nM iloprost in CAB or buffer alone was added and further incubated at 37° C. for 30 min. cAMP content in the well was measured by a cAMP ELISA kit (Applied Biosystems, USA).
The data corresponds to the compounds as yielded by solid phase synthesis and thus to levels of purity of about 40 to 90%. For practical reasons, the compounds are grouped in three classes of activity as follows: IC50=A<0.1 μM≦B<1 μM≦C

Each structure is given as a SMILES string.

T1 sequence (P43119 whole entry): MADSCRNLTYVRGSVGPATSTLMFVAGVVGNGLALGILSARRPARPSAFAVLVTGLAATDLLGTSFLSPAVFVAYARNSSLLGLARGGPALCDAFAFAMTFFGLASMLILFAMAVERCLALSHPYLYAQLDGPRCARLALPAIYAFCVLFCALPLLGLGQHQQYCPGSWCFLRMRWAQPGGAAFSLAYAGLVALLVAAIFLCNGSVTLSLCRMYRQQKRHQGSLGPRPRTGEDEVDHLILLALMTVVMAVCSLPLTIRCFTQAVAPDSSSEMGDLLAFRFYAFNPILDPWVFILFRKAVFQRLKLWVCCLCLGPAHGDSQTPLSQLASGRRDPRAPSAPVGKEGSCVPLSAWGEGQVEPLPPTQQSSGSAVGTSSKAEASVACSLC

`COc1cccc(COc2ccc(-c3cc(NC(Cc4ccccc4)C(=O)O)ncn3)cc2)c1` (centres unmarked) [Example 2-4] came in with a melting point of 90 to 93 °C. Also, the half-inhibitory concentration (IC50) at IP receptor was less than 100 nM.

`O=C(c1ccc(-c2cc(NC(Cc3ccccc3)C(=O)O)ncn2)cc1)C1CCCCC1` (centres unmarked) [Example 17-2] gave a melting point of 116 to 119 °C. Besides, the concentration for half-maximal inhibition (IC50) on IP receptor lay within 100 to 1000 nM.

As to `O=C(O)C(Cc1ccccc1)Nc1cc(-c2ccc(OCc3cccnc3)cc2)ncn1` (centres unmarked) [Example 2-21], the melting point was 135 to 136 °C (dec.). The concentration for half-maximal inhibition (IC50) at IP receptor is less than 100 nM.

Take `O=C(O)C(Cc1ccccc1)Nc1cc(-c2ccc(NS(=O)(=O)c3ccc(F)cc3)cc2)ncn1` (centres unmarked) [Example 15-2]: the melting point is 217 to 220 °C (dec.). The IC50 on IP receptor is more than 1000 nM.

With `O=C(O)C(Cc1cccc(O)c1)Nc1cc(-c2ccc(OCc3ccccc3)cc2)ncn1` (centres unmarked) [Example 2-30], the melting point amounted to 169 °C. Besides, on IP receptor, the half-maximal inhibitory concentration (IC50) was less than 100 nM.

In the case of `COc1cc(COc2ccc(-c3cc(NC(Cc4ccccc4)C(=O)O)ncn3)cc2)cc(OC)c1` (centres unmarked) [Example 2-2], the melting point lay in the range of 90 to 93 °C. In addition, the IC50 at IP receptor was less than 100 nM.

In the case of `CC(C)COc1ccc(-c2cc(NC(Cc3ccccc3)C(=O)O)ncn2)cc1` (centres unmarked) [Example 2-17], the melting point is 210 to 213 °C (dec.). In addition, at IP receptor, the half-inhibitory concentration (IC50) was less than 100 nM.

For `CCCCC(Nc1cc(-c2ccc(OCc3cccc(OC)c3)cc2)ncn1)C(=O)O` (centres unmarked) [Example 2-44], the melting point was in the range of 115 to 118 °C. The half-inhibitory concentration (IC50) at IP receptor is less than 100 nM.

Regarding `Nc1ccc(CC(Nc2cc(-c3ccc(OCc4ccccc4)cc3)ncn2)C(=O)O)cc1` (centres unmarked) [Example 1-29], the melting point was determined as 145 °C. For the same molecule, the IC50 on IP receptor is less than 100 nM.

In the case of `O=C(O)C(Cc1ccccc1)Nc1cc(-c2ccc(-c3ccccc3)cc2)ncn1` (centres unmarked) [Example 1-10], the melting point was 146 to 148 °C (dec.). Also, the IC50 at IP receptor is less than 100 nM.

The molecule `O=C(O)C(Cc1ccccc1)Nc1cccc(-c2ccc(OCc3ccccc3)cc2)n1` (centres unmarked) [Example 3-3] returned a melting point of 81 to 84 °C. Besides, the IC50 at IP receptor is more than 1000 nM.

Turning to `CCCCC(Nc1cc(-c2ccc(OCc3cc(F)cc(F)c3)cc2)ncn1)C(=O)O` (centres unmarked) [Example 2-46], the melting point lay in the range of 141 to 147 °C. In addition, the half-inhibitory concentration (IC50) on IP receptor was less than 100 nM.

In the case of `CC(C)Oc1ccc(-c2cc(NC(Cc3ccccc3)C(=O)O)ncn2)cc1` (centres unmarked) [Example 2-12], the melting point was 201 to 204 °C (dec.). Besides, at IP receptor, the IC50 was less than 100 nM.

In turn, `O=C(O)C(Cc1ccccc1)Nc1cccc(-c2ccc(OCc3ccc(F)cc3)cc2)c1` (centres unmarked) [Example 24-6] displayed a melting point of 175 to 178 °C. For the same molecule, the IC50 on IP receptor lay within 100 to 1000 nM.

In the case of `O=C(O)[C@H](Cc1ccccc1)Nc1cc(-c2ccc(/C=C/c3ccccc3)cc2)ncn1` [Example 7-1, N-(6-{4-[(E)-2-Phenylvinyl]phenyl}pyrimidin-4-yl)phenylalanine], the melting point was 214 to 216 °C (dec.). Moreover, the IC50 on IP receptor was less than 100 nM.

On to `O=C(O)C(Cc1ccccc1)Nc1cc(-c2ccc(OCCCc3ccccc3)cc2)ncn1` (centres unmarked) [Example 2-25], for which the melting point was in the range of 101 to 104 °C. Also, at IP receptor, the IC50 is less than 100 nM.

As to `COCC(Nc1cc(-c2ccc(OCc3ccccc3)cc2)ncn1)C(=O)O` (centres unmarked) [Example 1-34], the melting point is 115 to 120 °C. For the same molecule, the concentration for half-maximal inhibition (IC50) at IP receptor is less than 100 nM.

Consider `O=C(O)C(Cc1ccccc1)Nc1cc(-c2ccc(OCc3ccccc3F)cc2)ncn1` (centres unmarked) [Example 2-6], for which the melting point was 220 to 223 °C (dec.). Further, on IP receptor, the concentration for half-maximal inhibition (IC50) is less than 100 nM.

Take `O=C(O)C(COCc1ccccc1)Nc1cc(-c2ccc(OCc3ccccc3)cc2)ncn1` (centres unmarked) [Example 1-33]: the melting point lay in the range of 132 to 135 °C. The concentration for half-maximal inhibition (IC50) on IP receptor is less than 100 nM.

For `O=C(O)C(Cc1ccccc1)Nc1cc(-c2ccc(OCc3ccccn3)cc2)ncn1` (centres unmarked) [Example 2-28], the melting point was in the range of 120 to 123 °C. For the same molecule, at IP receptor, the IC50 was less than 100 nM.

With `O=C(Nc1ccc(-c2cc(N[C@@H](Cc3ccccc3)C(=O)O)ncn2)cc1)c1ccccc1` [Example 14-1, N-{6-[4-(Benzoylamino)phenyl]pyrimidin-4-yl}phenylalanine], the melting point was 250 to 252 °C (dec.). In addition, the IC50 on IP receptor lay within 100 to 1000 nM.

With `CC(C)CC(Nc1cc(-c2ccc(OCc3ccccc3)cc2)ncn1)C(=O)O` (centres unmarked) [Example 1-15], the melting point lay within 244 to 246 °C. At IP receptor, the IC50 lay in the range of 100 to 1000 nM.

For `O=C(Cc1ccccc1)Nc1ccc(-c2cc(NC(Cc3ccccc3)C(=O)O)ncn2)cc1` (centres unmarked) [Example 14-3], the melting point is 145 to 148 °C (dec.). The IC50 on IP receptor fell in the range of 100 to 1000 nM.

`CCCCC(Nc1cc(-c2ccc(OCc3ccccc3F)cc2)ncn1)C(=O)O` (centres unmarked) [Example 2-34] had a melting point of 85 to 90 °C. Besides, the 50% inhibitory concentration (IC50) at IP receptor is less than 100 nM.

Turning to `O=C(O)C(Cc1ccccc1)Nc1cc(-c2ccc(OCC3CCCCC3)cc2)ncn1` (centres unmarked) [Example 2-8], the melting point lay within 118 to 120 °C. Moreover, the 50% inhibitory concentration (IC50) on IP receptor was less than 100 nM.

`O=C(O)[C@H](Cc1ccccc1)Nc1cc(-c2ccc(OCc3ccccc3)cc2)ncn1` [Example 1-50] displayed a melting point of 150 to 155 °C. Besides, the half-maximal inhibitory concentration (IC50) at IP receptor is 100 to 1000 nM.

`O=C(O)[C@H](Cc1ccccc1)Nc1cc(-c2ccc(OCC3CC3)cc2)ncn1` [Example 2-1, N-{6-[4-(Cyclopropylmethoxy)phenyl]pyrimidin-4-yl}phenylalanine] gave a melting point of 216 to 218 °C. The 50% inhibitory concentration (IC50) at IP receptor was less than 100 nM.

Turning to `O=C(O)C(Cc1ccccc1)Nc1cc(-c2ccc(OCC3CCC3)cc2)ncn1` (centres unmarked) [Example 2-15], the melting point is 210 to 213 °C (dec.). The 50% inhibitory concentration (IC50) on IP receptor is less than 100 nM.

For `O=C(O)C(Cc1ccccc1)Nc1cc(-c2ccc(Oc3ccccc3)cc2)ncn1` (centres unmarked) [Example 1-8], the melting point was 214 to 217 °C (dec.). Moreover, on IP receptor, the concentration for half-maximal inhibition (IC50) is less than 100 nM.

On to `O=C(O)[C@H](Cc1ccccc1)Nc1cccc(-c2ccc(OCc3ccccc3)cc2)c1` [Example 24-1, N-[4′-(Benzyloxy)biphenyl-3-yl]phenylalanine], for which the melting point fell in the range of 152 to 154 °C. For the same molecule, on IP receptor, the half-maximal inhibitory concentration (IC50) is less than 100 nM.

In turn, `CSCCC(Nc1cc(-c2ccc(OCc3ccccc3)cc2)ncn1)C(=O)O` (centres unmarked) [Example 1-17] registered a melting point of 210 °C. In addition, the IC50 at IP receptor is less than 100 nM.

On to `O=C(O)C(Cc1ccccc1)Nc1cc(-c2ccc(CN3CCc4ccccc4C3)cc2)ncn1` (centres unmarked) [Example 19-4], for which the melting point lay in the range of 148 to 150 °C. Also, the IC50 on IP receptor is more than 1000 nM.

As for `O=C(O)C(Cc1ccccc1)Nc1ncnc(-c2ccc(OCc3ccccc3)cc2)c1F` (centres unmarked) [Example 1-20], the melting point lay within 145 to 146 °C. The half-maximal inhibitory concentration (IC50) at IP receptor was less than 100 nM.

`O=C(O)[C@H](Cc1ccccc1)Nc1ncnc(-c2ccc(OCc3ccccc3)cc2)c1CO` [Example 23-1, N-[6-[4-(Benzyloxy)phenyl]-5-(hydroxymethyl)pyrimidin-4-yl]phenylalanine] showed a melting point of 114 to 117 °C. Also, at IP receptor, the IC50 was 100 to 1000 nM.

As to `O=C(O)[C@@H](Cc1ccccn1)Nc1cc(-c2ccc(OCc3ccccc3)cc2)ncn1` [Example 1-4, N-{6-[4-(benzyloxy)phenyl]pyrimidin-4-yl}-3-pyridin-2-yl-D-alanine], the melting point is 142 °C. Also, the IC50 on IP receptor is less than 100 nM.

With `O=C(O)C(Cc1ccccc1)Nc1cc(-c2ccc(-c3cccc(-c4ccccc4)c3)cc2)ncn1` (centres unmarked) [Example 11-6], the melting point was 124 to 126 °C (dec.). Besides, the IC50 at IP receptor fell in the range of 100 to 1000 nM.

Regarding `CSc1ccc(-c2ccc(-c3cc(NC(Cc4ccccc4)C(=O)O)ncn3)cc2)cc1` (centres unmarked) [Example 11-3], the melting point is 135 to 137 °C (dec.). Moreover, the half-maximal inhibitory concentration (IC50) at IP receptor was less than 100 nM.

For the molecule `O=C(O)C(Cc1ccccc1)Nc1cc(-c2ccc(Cc3ccc(F)cc3)cc2)ncn1` (centres unmarked) [Example 18-2], the melting point fell in the range of 98 to 101 °C. On IP receptor, the half-inhibitory concentration (IC50) lay in the range of 100 to 1000 nM.

The molecule `O=C(O)C(Cc1ccccn1)Nc1cc(-c2ccc(OCCc3ccccc3)cc2)ncn1` (centres unmarked) [Example 2-38] returned a melting point of 52 to 53 °C. The IC50 on IP receptor is less than 100 nM.

For the molecule `O=C(O)C(Cc1ccccc1)Nc1cccc(-c2ccc(OCc3cccc(F)c3)cc2)c1` (centres unmarked) [Example 24-5], the melting point was in the range of 167 to 169 °C. In addition, on IP receptor, the half-inhibitory concentration (IC50) is less than 100 nM.
